We go through two compounds from PMC8224453, “A New PqsR Inverse Agonist Potentiates Tobramycin Efficacy to Eradicate Pseudomonas aeruginosa Biofilms” (Advanced Science, 2021).

Like-named read-outs stand apart in the source and are kept apart here.

For data set [1], the system named is alkylquinolones PQS and HHQ in P. aeruginosa PA14. The data set can be described thus: Alkylquinolone inhibition assay in PA14. Format: cell-based. As to conditions: Pseudomonas aeruginosa. The protocol: 4. Secondary Activity Assays
4.1. Alkylquinolone Inhibition Assay
The inhibitory effect of the synthesized compounds on alkylquinolone production in PA was measured as previously described with the modification that wt PA14 was used instead of PA14pqsH.[6] Briefly, P. aeruginosa PA14 cultures were grown in the presence of DMSO as a control or DMSO solutions of inhibitors for 17 h. HHQ and PQS as well as HQNO were quantified from ethyl acetate extracts using 5,6,7,8-tetradeutero-2-heptyl-4(1H)-quinolone (HHQ-d4) as internal standard (IS). LC-ESI-MS/MS analysis was performed on a Dionex […]
(1 picture or pasted object on this page, not shown here)
Scientific, Waltham MA) with the following conditions: Zorbax Eclipse XDB 80 Å C18 5 µm 4.6 x 50 mm column (Agilent, Santa Clara, CA, USA); eluent A – H2O with 0.1% trifluoroacetic acid (TFA), 0.1% pentafluoropropionic acid (PFPA), 0.1% heptafluorobutyric acid (HFBA); eluent B – acetonitrile with 0.1% TFA, 0.1% PFPA, 0.1% HFBA; isocratic 50% A; flow – 0.7 mL/min. TSQ Quantum Access Max (Thermo Fisher Scientific, Waltham, MA, USA) instrument parameters: Spray voltage 3500 V, vaporizer temperature 370 °C, sheath gas pressure 35 psi, aux gas pressure 30 psi, capillary temperature 270 °C, collision pressure 1.5 mTorr, positive ionization mode. For AQ analyte reaction monitoring parameters […]
Data acquisition and quantification was performed using Xcalibur software with the use of a calibration curve relative to the area of the IS. IC50 values were calculated according to the procedure of the pyocyanin assay (see above).
Table S1: LC-ESI-MS/MS reaction monitoring parameters of AQ analytes in positive ionization mode. precursor product collision tube lens retention ion m/z ion m/z energy (V) offset (V) time (min)
Chemical and biological materials for in vitro assays: All chemicals were purchased from Sigma-Aldrich unless otherwise specified. Yeast extract was obtained from Fluka. Bacto™ Tryptone were obtained from BD Biosciences. Luria Bertani (LB) agar was obtained from Carl Roth. Gibco® PBS was obtained from Life Te chnologies. Purified water was prepared by a Milli-Q water purification system (Merk Millipore, Billerica, MA). The PA strain PA14 wild type (PA14 wt) was purchased from DSMZ, the German Collection of Microorganism and Cell Cultures GmbH (PA14 = DSMZ19882) and cultured in minimal proteose peptone glucose ammonium salt (PPGAS) medium. PPGAS was composed of 1 g/L NH4Cl, 1.5 g/L KCl, 19 g/L Tris-HCl, 10 g/L peptone, 5 g/L glucose and 0.1 g/L MgSO4∙7H2O. The pH value of the medium was adjusted to 7.2 ± 0.2 and sterilized before use. Agar solution was […]

A short description of data set [2]: Metabolic stability, human liver S9. In kind it is in vitro ADME. The method, then:
For the evaluation of combined phase I and phase II metabolic stability, the compound (1 μM) was incubated with 1 mg/mL pooled liver S9 fraction from the respective species (Xenotech), […]
2 mM NADPH, 1 mM UDPGA, 10 mM MgCl2, 5 mM GSH and 0.1 mM PAPS at 37 °C for […]
0, 5, 15, 30 or 60 min. The metabolic stability of Testosterone (1 μM) and verapamil (1 μM) […]
were determined in parallel to confirm the enzymatic activity of the S9 fraction. The […]
incubation was stopped by precipitation of S9 enzymes with 2 volumes of cold acetonitrile […]
containing internal standard (750 nM Diphenhydramine). Samples were stored on ice for 10 […]
min and precipitated protein was removed by centrifugation (10 min, 4 °C, 17,000 g).
Concentration of the remaining test compound at the different time points was analyzed by […]
LC-MS/MS (TSQ Quantum Access MAX, Thermo Fisher, Dreieich, Germany) and used to […]
determine half-life (t1/2). Stability of compound 4 in further S9 fractions are summarized in […]
Table S4. Metabolic stability studies in various S9 fractions. […]

The target of a further data set is T1, hERG channel (Homo sapiens, UniProt Q12809).
T1 construct: Cyprotex (contract assay)
The experiment in a line: hERG functional patch-clamp inhibition assay. In kind it is cell-based. The method, then: 5.2. CYP and hERG inhibition
Assessment of in vitro drug safety regarding Cytochrom P450 (CYP) inhibition and inhibiton of human ether-à-go-go related gene (hERG) channel with a functional (patch-clamp-based) assay were performed at Cyprotex. Detailed information about the assays can be found in: https://www.cyprotex.com/admepk/in-vitro-metabolism/cytochrome-p450-inhibition, and […]
A general note: hERG is a cardiac potassium channel; its block is linked to QT prolongation.

The mark [3] stands for this setting: pooled human liver S9 fraction, Table 2, read-out: Metabolic stability t 1/2 S9 human.

T1 sequence (Q12809 whole entry): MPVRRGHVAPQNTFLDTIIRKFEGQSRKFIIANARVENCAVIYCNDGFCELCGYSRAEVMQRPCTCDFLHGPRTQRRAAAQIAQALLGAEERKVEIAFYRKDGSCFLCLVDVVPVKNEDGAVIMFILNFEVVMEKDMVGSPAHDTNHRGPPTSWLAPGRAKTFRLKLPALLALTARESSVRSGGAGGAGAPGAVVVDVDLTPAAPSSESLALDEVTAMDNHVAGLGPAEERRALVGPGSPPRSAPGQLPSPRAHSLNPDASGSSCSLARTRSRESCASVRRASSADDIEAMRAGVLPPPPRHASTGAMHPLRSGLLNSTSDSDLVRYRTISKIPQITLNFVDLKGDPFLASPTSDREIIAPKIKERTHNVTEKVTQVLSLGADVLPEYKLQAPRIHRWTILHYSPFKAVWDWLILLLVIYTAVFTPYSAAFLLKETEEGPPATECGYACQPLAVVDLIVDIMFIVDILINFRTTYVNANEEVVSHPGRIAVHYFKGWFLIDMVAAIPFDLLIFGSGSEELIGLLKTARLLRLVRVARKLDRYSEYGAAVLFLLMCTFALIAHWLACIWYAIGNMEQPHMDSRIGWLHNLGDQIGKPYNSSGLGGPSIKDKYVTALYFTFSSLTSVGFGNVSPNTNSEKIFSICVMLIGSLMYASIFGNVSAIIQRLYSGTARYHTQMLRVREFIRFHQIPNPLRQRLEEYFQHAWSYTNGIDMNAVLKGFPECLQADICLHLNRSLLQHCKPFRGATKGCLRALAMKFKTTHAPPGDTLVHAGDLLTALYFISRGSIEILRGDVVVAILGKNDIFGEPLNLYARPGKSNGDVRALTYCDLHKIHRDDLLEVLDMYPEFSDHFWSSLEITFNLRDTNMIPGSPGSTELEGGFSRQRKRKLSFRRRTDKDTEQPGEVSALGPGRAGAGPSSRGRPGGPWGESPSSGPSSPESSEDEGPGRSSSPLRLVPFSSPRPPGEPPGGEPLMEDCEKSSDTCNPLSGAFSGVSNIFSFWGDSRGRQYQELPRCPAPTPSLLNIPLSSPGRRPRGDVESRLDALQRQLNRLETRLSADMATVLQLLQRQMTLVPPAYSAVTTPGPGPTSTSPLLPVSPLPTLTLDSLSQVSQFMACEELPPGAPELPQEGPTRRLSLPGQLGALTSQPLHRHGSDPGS

`COc1ccc(-n2cc(CNc3ccnc(C(F)(F)F)c3)nn2)cc1Cl` [Compound 17]: the IC50 in data set [1] (PA14, read-out: IC50(HHQ)) was 1.32 ± 0.39 µM; in data set [1] (PA14, read-out: IC50(PQS)), 2.08 ± 0.37 µM; against hERG channel, greater than 25 µM. For the same compound, the half-life at 1 μM in data set [2] (setting [3]) stood at 0.7 h.

For `FC(F)(F)c1cc(NCc2cn(-c3ccc(Oc4ccccc4)cc3)nn2)ccn1` [Compound 4], the IC50 in data set [1] (PA14, read-out: IC50(HHQ)) is 0.37 ± 0.07 µM; in data set [1] (PA14, read-out: IC50(PQS)), 1.13 µM; on hERG channel it was greater than 25 µM. The half-life at 1 μM in data set [2] (setting [3]) worked out at 2.82 h; in data set [2] (pooled liver S9 fraction, Table S4, read-out: t1/2 human liver S9) it was 1.13 ± 0.15 h.

Usually IC50 stands for the midpoint of a concentration-inhibition curve.
